# Measured values published in ChEMBL document CHEMBL5120971, “Network Pharmacology Research and Dual-omic Analyses Reveal the Molecular Mechanism of Natural Product Nodosin Inhibiting Muscle-Invasive Bladder Cancer in Vitro and in Vivo” (J Nat Prod, 2022).
# The source made the active and inactive calls. The calls are words filed in the database; no cut-off is given here.
# Experiments:
# [1] = tested on: T-24; experiment: Induction of apoptosis in human T24 cells assessed as effect on ZFP36L1 expression at 6 uM measured after 24 to 30 hrs by proteomic analysis; assay type: functional, cell-based; settings: time 24-30 hrs
# [2] = tested on: T-24; experiment: Induction of apoptosis in human T24 cells assessed as up regulation of LC3 expression at 6 to 12 uM measured after 24 hrs by immunofluorescence analysis; assay type: functional, cell-based; settings: dose 6-12 µM
# [3] = tested on: T-24; experiment: Induction of apoptosis in human T24 cells assessed as up regulation of MAP1LC3B expression at 6 to 12 uM measured after 24 to 30 hrs by Western blot analysis; assay type: functional, cell-based; settings: dose 6-12 µM, time 24-30 hrs
# [4] = tested on: T-24; experiment: Antitumor activity against human T24 cells xenografted in BALB/c mouse assessed as increase in HMOX1expression at 2 mg/kg, ip administered at 2 days interval by immunohistochemical analysis; assay type: functional, organism-based
# [5] = tested on: T-24; experiment: Induction of apoptosis in human T24 cells assessed as late apoptotic cells at 6 uM measured after 48 hrs by Annexin V-FITC/propidium iodide staining based flow cytometry (reference value: 0.74%); assay type: functional
# [6] = tested on: T-24; experiment: Effect on DDB1 expression in human T24 cells at 6 uM measured after 24 to 30 hrs by proteomic analysis; assay type: functional, cell-based; settings: time 24-30 hrs
# [7] = tested on: T-24; experiment: Up regulation of SLC7A11 expression in human T24 cells at 6 uM measured after 24 to 30 hrs by proteomic analysis; assay type: functional, cell-based; settings: time 24-30 hrs
# [8] = tested on: T-24; experiment: Antimigratory activity against human T24 cells assessed as reduction in F-actin expression at 8 to 20 uM measured after 24 hrs by actin-tracker red-594/DAPI staining based fluorescence assay; assay type: functional, cell-based; settings: dose 8-20 µM
# [9] = tested on: T-24; experiment: Antitumor activity against human T24 cells xenografted in BALB/c mouse assessed as reduction in mitotic count at 2 mg/kg, ip administered at 2 days interval by H and E staining based assay; assay type: functional, organism-based
# [10] = tested on: T-24; experiment: Induction of apoptosis in human T24 cells assessed as up regulation of SQSTM1 expression at 6 to 12 uM measured after 24 to 30 hrs by Western blot analysis; assay type: functional, cell-based; settings: dose 6-12 µM, time 24-30 hrs
# [11] = tested on: T-24; experiment: Antimigratory activity against human T24 cells assessed as down regulation of NEXN expression at 6 uM measured after 24 to 30 hrs by proteomic analysis; assay type: functional, cell-based; settings: time 24-30 hrs
# [12] = tested on: T-24; experiment: Up regulation of FTL expression in human T24 cells at 6 uM measured after 24 to 30 hrs by proteomic analysis; assay type: functional, cell-based; settings: time 24-30 hrs
# [13] = tested on: T-24; experiment: Effect on SUMO3 expression in human T24 cells at 6 uM measured after 24 to 30 hrs by proteomic analysis; assay type: functional, cell-based; settings: time 24-30 hrs
# [14] = tested on: T-24; experiment: Up regulation of AIFM2 expression in human T24 cells at 6 uM measured after 24 to 30 hrs by proteomic analysis; assay type: functional, cell-based; settings: time 24-30 hrs
smiles,measurement,setting,value
C=C1C(=O)[C@]23C[C@H]1C[C@@H](O)[C@H]2[C@@]12CO[C@@H](O)[C@@H]1C(C)(C)CC[C@@H]2OC3=O [NODOSIN],Activity,[1],Active
same,Activity,[2],Active
same,Activity,[3],Active
same,Activity,[4],Active
same,Activity,[5],10.04%
same,Activity,[6],Active
same,Activity,[7],Active
same,Activity,[8],Active
same,Activity,[9],Active
same,Activity,[10],Active
same,Activity,[11],Active
same,Activity,[12],Active
same,Activity,[13],Active
same,Activity,[14],Active
